Entries after “also recorded” stand apart in the source; their conditions may differ.
Key:
rat lungs = experiment: Ex vivo lung perfusion (EVLP) of donor-pretreated rat lungs; assay type: in vivo; conditions: donor pre-treatment; for pulmonary vascular resistance (PVR) during EVLP: 3 h normothermic EVLP; for syndecan-1 concentration in EVLP perfusate: during EVLP, vs increasing levels in control; for Evans blue dye (EBD) penetration into lung parenchyma: last 30 min of EVLP, vs control
Experimental: Ex vivo lung perfusion in rats. EVLP was performed using a commercially available rodent EVLP system (IPL-2 Isolated Perfused Rat or Guinea Pig Lung System; Harvard Apparatus, Holliston, MA). After procurement, the lungs were kept under cold ischemia for 1 h, then placed on the EVLP system, ventilated with air warmed to 37′, and perfused with 100 ml STEEN solution (XVIVO Perfusion AB) that was deoxygenated with 6% O2, 8% CO2 and balanced N2 and supplemented with 50 mg of methylprednisolone (Solu-Medrol; Pfizer, Inc.) and 50 mg of cephalosporin (Cefazolin; West-Ward Pharmaceuticals Corp., Eatontown, NJ). […] Pulmonary artery pressure, peak airway pressure, and airway flow were monitored continuously, and lung compliance and PVR were calculated every hour.
Assessment of endothelial barrier function. After 3 h of EVLP, 6 mg of Evans blue dye (EBD, Millipore Sigma) was administered into the perfusate to assess vascular endothelial permeability. After 30 min of perfusion, the lung vascular bed was rinsed with 20 ml of PBS and pieces of lungs were incubated overnight in formamide (Millipore Sigma) at 60° C. Absorbance of the extractant was measured at 620 nm to quantitate the amount of EBD that had permeabilized into the tissue and was normalized to dry-tissue weight.
Determination of glycocalyx components in rat lung grafts. For rat lung tissue, syndecan-1 released into the perfusate during EVLP was measured with a rat-specific ELISA (Immunotag Rat SDC1 (Syndecan-1) ELISA, G-Biosciences, St. Louis, MO). Glycocalyx glycosaminoglycans (GAGs) were quantitated using the 1,9-dimethylmethylene blue (DMMB, Millipore Sigma) method with modifications. A 1 L solution of DMMB (pH˜3.0) was prepared by dissolving 16 mg DMMB in distilled H2O containing 3.04 g/A glycine, 1.6 g/A NaCl and 95 ml 0.1 M acetic acid. Briefly, 1 ml DMMB solution was added to 20 μl lung tissue lysate then incubated at room temperature for 1 h on a tube rotator. The tubes were then centrifuged at 14,000 rpm for 15 min at 4° C. Supernatants were carefully decanted, 200 μL sodium lauryl sulfate buffer (2.08 mM) was added to each pellet, and the tubes were vortexed until GAG-DMMB pellets were no longer visible. GAG content in each sample was measured spectrophotometrically at 656 nm.

MMP-2 = experiment: Gelatin zymography of EVLP perfusate, donor-pretreated lungs; assay type: in vivo, rat; conditions: donor pre-treatment, vs control
Experimental: Gelatin zymography. Gelatin zymography was performed to measure secreted MMP-2 and MMP-9 activity in EVLP perfusate and to measure endogenous MMP-2 and 9 activity in lung tissue before transplantation. Briefly, lung tissue before transplant was homogenized in cold PBS. Perfusate samples (20 μl) or tissue lysates were mixed with 2× non-reducing SDS sample buffer were loaded onto a 10% polyacrylamide gel containing 0.1% SDS and 0.1% gelatin. After electrophoresis to separate the proteins, the gel was washed in renaturing buffer (Novex Invitrogen) at room temperature, and then incubated in developing buffer (Novex Invitrogen) at 37° C. overnight (˜16-18 h). The next day, the gel was stained with Coomassie Brilliant Blue R-250 (Bio-Rad) and imaged (ChemiDoc, Bio-Rad). Enzyme activity, visualized as clear bands against the dark blue background, was quantified using Image-J (NIH).

[1] = tested on: endothelial glycocalyx (eGC); experiment: Gross inspection and TEM glycocalyx imaging of rat lungs after 1 h warm ischemia; assay type: in vivo; conditions: for gross visual appearance of excised lungs: heparin 300 IU or NAH 300 μg i.v. before 1 h ischemia; for eGC ultrastructure in lung vasculature (TEM): heparin 300 IU or NAH 300 μg i.v. before 1 h warm ischemia, vs control
Experimental: Models of lungs with damaged or preserved eGC and rat orthotopic left lung transplantation. Rats were sedated with 4% isoflurane via inhalation for tracheostomy and then placed on a ventilator. They received 5% isoflurane with 100% O2 via inhalation through the ventilator for 15 min to induce a deep state of anesthesia that causes arrest of spontaneous breathing. The rats were disconnected from the ventilator 5 min after intravenous administration of heparin (300 IU), a heparin derivative without anti-coagulant properties (300 μg; N-acetyl heparin (NAH) (Millipore Sigma, Burlington, MA)), or saline (300 μl, control) through the jugular vein. Cardiac activity and blood oxygen saturation were monitored after disconnection from ventilator until cardiac arrest. One hour after induction of ischemia, a median thoracotomy was performed, and blood was flushed from the lungs with cold, low potassium dextran solution (PERFADEX; XVIVO Perfusion AB) through the pulmonary artery. Then, the heart-lung bloc was isolated and stored in cold PERFADEX for 6 h before transplantation.
TEM for glycocalyx imaging. To prepare the tissue for transmission electron microscopy imaging, blood was flushed from rat lungs with PBS via the pulmonary artery after 1 h of warm ischemia, then the lungs were perfused with a solution containing 2% glutaraldehyde, 2% sucrose, 0.1 M sodium cacodylate buffer (pH 7.3, Sigma), and 2% lanthanum nitrate (Sigma). Excised lung tissues were incubated with the same solution for 2 h at 4° C. for fixation. The fixed tissues were immersed in a 2% sucrose, 0.1 M sodium cacodylate buffer (pH 7.3) solution with 2% lanthanum nitrate overnight at 4° C. to stain the glycocalyx, then washed twice with an alkaline solution (0.03 mol/l NaOH) containing 2% sucrose. Following fixation and glycocalyx staining with lanthanum nitrate, the specimens were rinsed in PBS, post-fixed in 1% osmium tetroxide (Electron Microscopy Sciences, Hatfield, PA), rinsed in PBS a second time, dehydrated through a graded series of ethanol and propylene oxide (Electron Microscopy Sciences), and embedded using a Poly/Bed 812 (Luft formulations) Embedding Kit (Polysciences, Warrington, PA). Sections were cut on a Leica-Reichart Ultracut ultra-microtome (Leica Microsystems, Buffalo Grove, IL). Semi-thin (300 nm) sections were stained with 0.5% toluidine blue in 1% sodium borate (toluidine blue O and sodium borate, Fisher Scientific, Pittsburgh, PA) and examined under the light microscope. Ultrathin sections (65 nm) were stained with uranyl acetate and Reynold's lead citrate and examined on a JEOL 1400 transmission electron microscope (JEOL Peabody, MA) with a side-mount AMT 2 k digital camera (Advanced Microscopy Techniques, Danvers, MA).

IL-6, IL-1β, MMP-9 mRNA = experiment: Real-time RT-PCR in lung grafts 2 h after transplantation; assay type: in vivo, rat; conditions: for IL-1β mRNA expression / IL-6 mRNA expression: graft 2 h after reperfusion, vs control lung grafts; for MMP-9 mRNA expression: graft 2 h after transplantation, vs control
Experimental: Real-time RT PCR. Lung tissues were collected after EVLP or 2 h after transplantation. Total RNA was extracted from the graft using TRIzol reagent (Life Technologies, Inc. Grand Island, NY) according to the manufacturer's instructions and purified by ethanol precipitation. RNA content was measured using 260/280 nm UV spectrophotometry.

Row | Substance | pulmonary vascular resistance (PVR) during EVLP (rat lungs) | syndecan-1 concentration in EVLP perfusate (rat lungs) | Evans blue dye (EBD) penetration into lung parenchyma (rat lungs) | MMP-2 activity in EVLP perfusate (MMP-2) | gross visual appearance of excised lungs [1] | eGC ultrastructure in lung vasculature (TEM) [1] | IL-1β mRNA expression (IL-6, IL-1β, MMP-9 mRNA) | IL-6 mRNA expression (IL-6, IL-1β, MMP-9 mRNA) | MMP-9 mRNA expression (IL-6, IL-1β, MMP-9 mRNA)
1 | heparin | little to no increase | maintained at a constant level | significantly less EBD penetration | significantly less | no significant changes in appearance | preserved; also recorded: intact and adherent to the cell surface | significantly lower | significantly lower | significantly lower
2 | N-acetyl heparin [NAH] | little to no increase | maintained at a constant level | significantly less EBD penetration | significantly less | no significant changes in appearance | intact and adherent to the cell surface | significantly lower | significantly lower | significantly lower

From patent US20250204515A1, “Heparanase Inhibition for Graft Protection” (University of Pittsburgh - Of the Commonwealth System of …, priority 2022, published 2025)
